Results reported in the supplement of paper PMC10307832.

Assays:
Assay in all cases: relative viability (nuclei count vs DMSO), 5 days (fraction); higher = more cells survive
NCI-H1755 = system: NCI-H1755
In short: (§1)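 A single step with final 0.05% Triton X-100, 1% formaldehyde and 1 ug/ml Hoechst fixed the cells and stained nuclei 5 days after treatment. Lung cancer cell lines in 1536-well plates had been treated by pin tool the day after seeding with one drug alone or a fixed anchor-drug dose plus five library-drug doses (not always all listed) in √10 steps, and nuclei were counted on 4× images. Relative viability is the ratio of nuclei in treated wells to nuclei in vehicle wells, taken as the median of duplicate plates.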

PC-3 [JPC-3] = system: PC-3 [JPC-3]
In short: as §1

RERF-LC-KJ = system: RERF-LC-KJ
In short: as §1

LU99A = system: LU99A
In short: as §1

HCC-78 = system: HCC-78
In short: as §1

NCI-H3122 = system: NCI-H3122
In short: as §1

NCI-H1793 = system: NCI-H1793
In short: as §1

NCI-H1944 = system: NCI-H1944
In short: as §1

NCI-H1395 = system: NCI-H1395
In short: as §1

ChaGo-K-1 = system: ChaGo-K-1
In short: as §1

HCC-366 = system: HCC-366
In short: as §1

NCI-H2087 = system: NCI-H2087
In short: as §1

LOU-NH91 = system: LOU-NH91
In short: as §1

CAL-12T = system: CAL-12T
In short: as §1

NCI-H2405 = system: NCI-H2405
In short: as §1

NCI-H2228 = system: NCI-H2228
In short: as §1

LC-2-ad = system: LC-2-ad
In short: as §1

UMC-11 = system: UMC-11
In short: as §1

NCI-H2170 = system: NCI-H2170
In short: as §1

ABC-1 = system: ABC-1
In short: as §1

NCI-H1651 = system: NCI-H1651
In short: as §1

NCI-H460 = system: NCI-H460
In short: as §1

**Q.** `COc1nc(C)cnc1NS(=O)(=O)c1cccnc1-c1ccc(-c2nnco2)cc1` [Zibotentan] + CS(=O)(=O)N1CCN(Cc2cc3nc(-c4cccc5[nH]ncc45)nc(N4CCOCC4)c3s2)CC1 [Pictilisib] (partner 1 µM) was tested. Which relative viability (NCI-H1755; first compound 0.08 µM) did it give?
**A.** 0.444

**Q.** What about the relative viability (NCI-H1755; first compound 0.253 µM) of the same compound?
**A.** 0.461

**Q.** And the relative viability (NCI-H1755; first compound 0.8 µM)?
**A.** 0.382

**Q.** What about the relative viability (NCI-H1755; first compound 2.53 µM) of the same compound?
**A.** 0.47

**Q.** And the relative viability (PC-3 [JPC-3]; first compound 0.08 µM)?
**A.** 0.756

**Q.** And the relative viability (PC-3 [JPC-3]; first compound 0.253 µM)?
**A.** 0.717

**Q.** And the relative viability (PC-3 [JPC-3]; first compound 0.8 µM)?
**A.** 0.647

**Q.** What about the relative viability (PC-3 [JPC-3]; first compound 2.53 µM) of the same compound?
**A.** 0.781

**Q.** What about the relative viability (RERF-LC-KJ; first compound 0.08 µM) of the same compound?
**A.** 0.484

**Q.** What about the relative viability (RERF-LC-KJ; first compound 0.253 µM) of the same compound?
**A.** 0.704

**Q.** What about the relative viability (RERF-LC-KJ; first compound 0.8 µM) of the same compound?
**A.** 0.593

**Q.** What about the relative viability (RERF-LC-KJ; first compound 2.53 µM) of the same compound?
**A.** 0.514

**Q.** And the relative viability (LU99A; first compound 0.08 µM)?
**A.** 0.362

**Q.** And the relative viability (LU99A; first compound 0.253 µM)?
**A.** 0.314

**Q.** What about the relative viability (LU99A; first compound 0.8 µM) of the same compound?
**A.** 0.343

**Q.** And the relative viability (LU99A; first compound 2.53 µM)?
**A.** 0.371

**Q.** What about the relative viability (HCC-78; first compound 0.08 µM) of the same compound?
**A.** 0.0937

**Q.** And the relative viability (HCC-78; first compound 0.253 µM)?
**A.** 0.23

**Q.** What about the relative viability (HCC-78; first compound 0.8 µM) of the same compound?
**A.** 0.198

**Q.** And the relative viability (HCC-78; first compound 2.53 µM)?
**A.** 0.195

**Q.** What about the relative viability (NCI-H3122; first compound 0.08 µM) of the same compound?
**A.** 0.568

**Q.** What about the relative viability (NCI-H3122; first compound 0.253 µM) of the same compound?
**A.** 0.519

**Q.** And the relative viability (NCI-H3122; first compound 0.8 µM)?
**A.** 0.576

**Q.** What about the relative viability (NCI-H3122; first compound 2.53 µM) of the same compound?
**A.** 0.539

**Q.** And the relative viability (NCI-H1793; first compound 0.08 µM)?
**A.** 0.429

**Q.** And the relative viability (NCI-H1793; first compound 0.253 µM)?
**A.** 0.306

**Q.** What about the relative viability (NCI-H1793; first compound 0.8 µM) of the same compound?
**A.** 0.391

**Q.** What about the relative viability (NCI-H1793; first compound 2.53 µM) of the same compound?
**A.** 0.345

**Q.** And the relative viability (NCI-H1944; first compound 0.08 µM)?
**A.** 0.368

**Q.** What about the relative viability (NCI-H1944; first compound 0.253 µM) of the same compound?
**A.** 0.323

**Q.** And the relative viability (NCI-H1944; first compound 0.8 µM)?
**A.** 0.338

**Q.** What about the relative viability (NCI-H1944; first compound 2.53 µM) of the same compound?
**A.** 0.393

**Q.** What about the relative viability (NCI-H1395; first compound 0.08 µM) of the same compound?
**A.** 0.789

**Q.** What about the relative viability (NCI-H1395; first compound 0.253 µM) of the same compound?
**A.** 0.546

**Q.** What about the relative viability (NCI-H1395; first compound 0.8 µM) of the same compound?
**A.** 0.606

**Q.** What about the relative viability (NCI-H1395; first compound 2.53 µM) of the same compound?
**A.** 0.541

**Q.** What about the relative viability (ChaGo-K-1; first compound 0.08 µM) of the same compound?
**A.** 0.653

**Q.** What about the relative viability (ChaGo-K-1; first compound 0.8 µM) of the same compound?
**A.** 0.426

**Q.** And the relative viability (ChaGo-K-1; first compound 2.53 µM)?
**A.** 0.691

**Q.** What about the relative viability (HCC-366; first compound 0.08 µM) of the same compound?
**A.** 0.145

**Q.** And the relative viability (HCC-366; first compound 0.253 µM)?
**A.** 0.156

**Q.** And the relative viability (HCC-366; first compound 0.8 µM)?
**A.** 0.141

**Q.** And the relative viability (HCC-366; first compound 2.53 µM)?
**A.** 0.148

**Q.** And the relative viability (NCI-H2087; first compound 0.08 µM)?
**A.** 0.881

**Q.** What about the relative viability (NCI-H2087; first compound 0.253 µM) of the same compound?
**A.** 0.834

**Q.** What about the relative viability (NCI-H2087; first compound 0.8 µM) of the same compound?
**A.** 1.01

**Q.** What about the relative viability (NCI-H2087; first compound 2.53 µM) of the same compound?
**A.** 0.954

**Q.** What about the relative viability (LOU-NH91; first compound 0.08 µM) of the same compound?
**A.** 0.497

**Q.** And the relative viability (LOU-NH91; first compound 0.253 µM)?
**A.** 0.468

**Q.** And the relative viability (LOU-NH91; first compound 0.8 µM)?
**A.** 0.515

**Q.** What about the relative viability (LOU-NH91; first compound 2.53 µM) of the same compound?
**A.** 0.54

**Q.** And the relative viability (CAL-12T; first compound 0.08 µM)?
**A.** 0.395

**Q.** And the relative viability (CAL-12T; first compound 0.8 µM)?
**A.** 0.453

**Q.** And the relative viability (CAL-12T; first compound 2.53 µM)?
**A.** 0.513

**Q.** And the relative viability (NCI-H2405; first compound 0.08 µM)?
**A.** 0.441

**Q.** And the relative viability (NCI-H2405; first compound 0.253 µM)?
**A.** 0.339

**Q.** And the relative viability (NCI-H2405; first compound 0.8 µM)?
**A.** 0.473

**Q.** What about the relative viability (NCI-H2405; first compound 2.53 µM) of the same compound?
**A.** 0.481

**Q.** And the relative viability (NCI-H2228; first compound 0.08 µM)?
**A.** 0.45

**Q.** What about the relative viability (NCI-H2228; first compound 0.253 µM) of the same compound?
**A.** 0.438

**Q.** And the relative viability (NCI-H2228; first compound 0.8 µM)?
**A.** 0.355

**Q.** What about the relative viability (NCI-H2228; first compound 2.53 µM) of the same compound?
**A.** 0.317

**Q.** And the relative viability (LC-2-ad; first compound 0.08 µM)?
**A.** 0.48

**Q.** And the relative viability (LC-2-ad; first compound 0.253 µM)?
**A.** 0.406

**Q.** And the relative viability (LC-2-ad; first compound 0.8 µM)?
**A.** 0.527

**Q.** What about the relative viability (LC-2-ad; first compound 2.53 µM) of the same compound?
**A.** 0.435

**Q.** What about the relative viability (UMC-11; first compound 0.08 µM) of the same compound?
**A.** 0.746

**Q.** What about the relative viability (UMC-11; first compound 0.253 µM) of the same compound?
**A.** 0.809

**Q.** What about the relative viability (UMC-11; first compound 0.8 µM) of the same compound?
**A.** 0.837

**Q.** What about the relative viability (UMC-11; first compound 2.53 µM) of the same compound?
**A.** 0.777

**Q.** And the relative viability (NCI-H2170; first compound 0.08 µM)?
**A.** 0.282

**Q.** What about the relative viability (NCI-H2170; first compound 0.253 µM) of the same compound?
**A.** 0.295

**Q.** And the relative viability (NCI-H2170; first compound 0.8 µM)?
**A.** 0.316

**Q.** And the relative viability (NCI-H2170; first compound 2.53 µM)?
**A.** 0.368

**Q.** And the relative viability (ABC-1; first compound 0.08 µM)?
**A.** 0.686

**Q.** And the relative viability (ABC-1; first compound 0.253 µM)?
**A.** 0.623

**Q.** What about the relative viability (ABC-1; first compound 0.8 µM) of the same compound?
**A.** 0.772

**Q.** And the relative viability (ABC-1; first compound 2.53 µM)?
**A.** 0.646

**Q.** What about the relative viability (NCI-H1651; first compound 0.08 µM) of the same compound?
**A.** 0.742

**Q.** And the relative viability (NCI-H1651; first compound 0.253 µM)?
**A.** 0.427

**Q.** And the relative viability (NCI-H1651; first compound 0.8 µM)?
**A.** 0.705

**Q.** What about the relative viability (NCI-H1651; first compound 2.53 µM) of the same compound?
**A.** 0.602

**Q.** What about the relative viability (NCI-H460; first compound 0.08 µM) of the same compound?
**A.** 0.351

**Q.** What about the relative viability (NCI-H460; first compound 0.253 µM) of the same compound?
**A.** 0.336

**Q.** What about the relative viability (NCI-H460; first compound 0.8 µM) of the same compound?
**A.** 0.327

**Q.** What about the relative viability (NCI-H460; first compound 2.53 µM) of the same compound?
**A.** 0.38
